Experimental data as given in patent publication US9447446B2, “Lipid multilayer microarrays and their use for cell culture screening” (FLORIDA STATES UNIVERSITY RESEARCH FOUNDATION, priority 2011, dated 2016).

Columns and labels:
NIH 3T3 cells [1] = format: cell-based; settings: for cell death over drug pattern: lipid (DOTAP)-encapsulated drug pattern, FIG. 21
Method: NIH 3T3 cells (obtained from the American Type Culture Collection, CRL-1658™, and maintained according to the collections guidelines) for all experiments are seeded at 4×10^5 cells/mL and grown to 70% confluence in Dulbecco's Modified Eagle Medium supplemented with 10% Cosmic Calf Serum (Sigma Aldrich). Trypsin (0.25%) is used for cell detachment, and the medium is replaced with fresh medium 24 hours before the experiment. Cells are seeded onto the patterned glass coverslips by gently pipetting a drop of the cell suspension directly over each pattern to prevent the patterns from being washed away. The same method is used to seed other parts of the slide for use as control areas. The cells are incubated over the patterned areas for 48 hours.
Aliquots of valinomycin (20 mg/mL) and DOTAP (20 mg/mL), both dissolved in chloroform, are placed in an amber glass vial and serially diluted to produce valinomycin masses of 20, 10, 5, 2.5, 1.25 and 0.63 mg. Drying, liposome formation and cell culture are conducted as described above for the Rhodamine dose-response. Toxicity assays are performed after 24 and 48 hours.
Docetaxel (20 mg/mL) dissolved in DMSO is further serially diluted in Hank's buffered salt solution to produce seven solutions with docetaxel masses of 50, 25, 12.5, 6.25, 3.2, 1.6 and 0.8 mg respectively, each with a total volume of […]. The eighth is a solution of DMSO only (control) at the same volume as the 50 mg solution. These mixtures are added to […] of medium and added to the cells in the same manner as described above for the Rhodamine dose-response. Toxicity assays are performed after incubation for 48 hours.
The BacLight live/dead assay is purchased from Invitrogen. The cells are incubated with both SYTO 9 and propidium iodide for 20 min. The cells stained with both are counted as dead, and those stained with SYTO 9 only are counted as live.^34,35 All counting of live and dead cells is done by hand.
Valinomycin is tested first because of its quick action as a cytotoxic agent and immediate action upon incorporation into the cellular membrane. The drug acts as a potassium ionophore, facilitating loss of potassium and resulting in cell death. FIGS. 16, 17, 18 and 19 show a toxicity assay of cells that are cultured over a lipid multilayer microarray. […] In FIGS. 16, 17 and 18, arrows in 1612, 1614 and 1616 point to the same alignment mark. FIG. 16 is a brightfield image of DOTAP/valinomycin pattern before cell culture. […] FIG. 18 is a higher magnification of the square area 1702 of FIG. 17. Images are taken after 24 hours. Images in FIGS. 17 and 18 are the merged TRITC and FITC fluorescence channel images. FIG. 19 is a mosaic of images (TRITC filter set). Central square 1902 corresponds to FIG. 17, and the other squares are the areas immediately surrounding central square 1902. All live cells are stained green; nuclei of dead cells are stained red.
Taxotere® (docetaxel) is an anticancer drug and is a second-generation, semisynthetic analog of Taxol® (paclitaxel). Taxanes, which include paclitaxel and docetaxel, work by binding to microtubules and stabilizing them, thus preventing their disassembly and progression through mitosis, and therefore their functioning inside the cytoplasm. The cell may revert to the G1 phase or undergo apoptosis.^36 Cells are plated over patterns (such as that in FIG. 16) consisting of lipid only, lipid-encapsulated docetaxel and lipid-encapsulated valinomycin, all on the same glass coverslip and incubated for 48 hours. The results are shown in FIGS. 20, 21, 22, 23, 24, 25, 26, 27, 28 and 29.

NIH 3T3 cells [2] = assay: live cell imaging of DOPE-rhodamine uptake from lipid pattern; format: cell-based; settings: cells cultured over lipid pattern for 25 hours; decrease starts after 20 hours, complete by 25 hours
Method: DOTAP is mixed with 1 mol % DOPE-rhodamine, and 2 μL was deposited in the M-type inkwell for the DPN 2000.
Microscopy for all the imaging except the supplementary video is done with a Nikon Eclipse Ti microscope. The printed patterns and the Retiga-SRV fast 1394 camera are used. Patterns are imaged in brightfield before cell culture. Nikon fluorescence filter sets B-2E/C FITC and G-2E/C TRITC are used for the live/dead cell assay. Imaging is done at 800 m sec exposure time with the 10× (NA=0.3) objective and at 1 second for the 4× (NA=0.13) objective. Lamp intensity for all imaging is set at 4. Microscopy for the live cell lipid uptake for the supplementary video is done with a Nikon TE-2000-E inverted microscope equipped with a Nikon Plan Apo 40× (NA=0.95) DIC objective.
FIGS. 10, 11, 12, 13, 14 and 15 show the uptake of DOPE-rhodamine-labeled DOTAP by NIH 3T3 cells. […] Fluorescence intensity is used as the indicator of the amount of lipid taken up by the cells. A higher fluorescence in cells indicates higher uptake of lipids. Grid lines 1022 and 1024 in FIG. 10 and grid lines 1026 and 1028 in FIGS. 10 and 11 divide the images of FIGS. 10 and 11 into areas 1032 and 1034, respectively, analyzed and compared for fluorescence intensity before and after cell incubation on the patterns. […]

[3] = NIH 3T3 cells, 48 hours, live/dead assay

In the case of `CCCCCCCC/C=C\CCCCCCCC(=O)OCC(C[N+](C)(C)C)OC(=O)CCCCCCC/C=C\CCCCCCCC.[Cl-]` (stereo not shown) [DOTAP, 1,2-dioleoyl-3-trimethylammonium-propane (chloride salt)], the “toxicity of lipid-only pattern versus control with medium only” value (NIH 3T3 cells [1]; DOTAP-only pattern, NIH 3T3 cells, 48 hours, p>0.05) is reported as “did not differ significantly”.

In the case of “1,2-dioleoyl-sn-glycerol-3-phosphoethanolamine-N-(lissamine rhodamine b sulfonyl) (ammonium salt) [DOPE-rhodamine]”, the “critical uptake time (window in which fluorescence of absorbed spots disappears)” value (NIH 3T3 cells [2]) is reported as 5 h.

With `CC(C)[C@@H]1NC(=O)[C@H](C)OC(=O)[C@@H](C(C)C)NC(=O)[C@@H](C(C)C)OC(=O)[C@H](C(C)C)NC(=O)[C@H](C)OC(=O)[C@@H](C(C)C)NC(=O)[C@@H](C(C)C)OC(=O)[C@H](C(C)C)NC(=O)[C@H](C)OC(=O)[C@@H](C(C)C)NC(=O)[C@@H](C(C)C)OC1=O` [valinomycin] the “toxicity level from the surface (cells killed)” value (NIH 3T3 cells [1]; DOTAP/valinomycin pattern (4:1 lipid-to-drug), NIH 3T3 cells, 24 hours, live/dead assay) was “about 11%”, the “corresponding concentration of liposomal drug delivered from solution” value (NIH 3T3 cells [1]; equivalent solution concentration for the toxicity of the DOTAP/valinomycin pattern, 24 hours) was “about 0.1 mg/mL” and the “cell death over drug pattern” value (NIH 3T3 cells [1]; [3]) was “about 25%”.

With `CC(=O)O[C@@]12CO[C@@H]1C[C@H](O)[C@@]1(C)C(=O)[C@H](O)C3=C(C)[C@@H](OC(=O)[C@H](O)[C@@H](NC(=O)OC(C)(C)C)c4ccccc4)C[C@@](O)([C@@H](OC(=O)c4ccccc4)[C@H]21)C3(C)C` [docetaxel] the “comparable concentration of docetaxel dissolved in DMSO delivered from solution” value (NIH 3T3 cells [1]; equivalent solution concentration for the toxicity of the docetaxel pattern, 48 hours) was “approximately 6.25 mg/mL” and the “cell death over drug pattern” value (NIH 3T3 cells [1]; [3]) was “over 60%”.
